Data taken from ChEMBL document CHEMBL3124802, “Scrutinizing the scaffolds of marine biosynthetics from different source organisms: Gram-negative cultured bacterial products enter center stage” (J Nat Prod, 2014).
≈ marks a conversion by molar mass, not a printed value. Where a SMILES comes first, the peptide text is derived from it. Bridges are numbered along the chain shown (N, C = ends). The star is where a group is joined. X1 = O=C(/C=C/C=C/C=C/C=C/c1ccc(O)c(Br)c1)*

Experiments:
[1] = Antioxidant activity assessed as singlet oxygen quenching activity; format: functional
[2] = Cytotoxicity against sea urchin eggs; set-up: species or system Egg; conditions: strongylocentrotus intermedius, read-out: MIC
Candida albicans = experiment: Antimicrobial activity against Candida albicans; format: functional

| Structure (SMILES) | MCC [2] | other results |
| --- | --- | --- |
| CC(/C=C/C=C(C)/C=C/C=C(\C)C(=O)O)=C\C=C\C=C(C)\C=C\C=C(C)\C=C\C=C(/C)C(=O)O[C@@H]1OC[C@@H](O)[C@H](O)[C@H]1OC(=O)CCCCCCCCCCC(C)C | – | IC50 [1]: 5.1 µM |
| CC[C@@H](C)[C@@H]1NC(=O)[C@H](CC(N)=O)NC(=O)[C@H](CC(N)=O)NC(=O)[C@H](C(C)C)NC(=O)[C@@H](NC(=O)/C=C/C=C/C=C/C=C/c2ccc(O)c(Br)c2)[C@@H](C)OC1=O | 40 µg/mL | – |
| CC[C@@H](C)[C@@H]1NC(=O)[C@H](CC(N)=O)NC(=O)[C@H](CC(N)=O)NC(=O)[C@H](C(C)C)NC(=O)[C@@H](NC(=O)CCCCCCCCc2ccc(O)cc2)[C@@H](C)OC1=O | 40 µg/mL | – |
| CC[C@@H](C)[C@@H]1NC(=O)[C@H](CC(N)=O)NC(=O)[C@H](CC(N)=O)NC(=O)[C@H](C(C)C)NC(=O)[C@@H](NC(=O)CCCCCCCCc2ccc(O)c(Br)c2)[C@@H](C)OC1=O | 40 µg/mL | – |
| CC[C@@H](C)[C@@H]1NC(=O)[C@H](CC(N)=O)NC(=O)[C@H](CC(N)=O)NC(=O)[C@H](C(C)C)NC(=O)[C@@H](NC(=O)/C=C/CCCCCCc2ccc(O)c(Br)c2)[C@@H](C)OC1=O | 40 µg/mL | – |
| CC(C)C[C@@H]1NC(=O)[C@H](CC(N)=O)NC(=O)[C@H](CC(N)=O)NC(=O)[C@H](C(C)C)NC(=O)[C@@H](NC(=O)/C=C/C=C/C=C/C=C/c2ccc(O)c(Br)c2)[C@@H](C)OC1=O (X1-TVNNL; ester 1-C) | 40 µg/mL | – |
| C/C1=C\[C@H](C)C[C@H](C)OC(=O)C[C@H](c2ccc(O)cc2)NC(=O)[C@@H](Cc2c(Br)[nH]c3ccccc23)N(C)C(=O)[C@H](C)NC(=O)[C@@H](C)C1 [JASPAMIDE] | – | MIC (Candida albicans): 25 µg/mL (≈ 35.2 µM) |
